Measurements published in patent EP1667954B1, “BIPOLAR TRANS CAROTENOID SALTS AND THEIR USES” (Diffusion Pharmaceuticals LLC, priority 2003, dated 2005).

Assays:
[1] = result in words; cited from earlier work
[2] = test system: rat model of acute hypoxia; settings: hypoxia with 10% oxygen, treatment after 10 minutes; only 2 of 6 control animals survived; cited from earlier work
physchem = settings: water
Source text: (§1) A dilute, eg .00001-.001M, solution of sodium carbonate can be added, dropwise, to deionized water until the pH is 8.0 (the pH of deionized water is usually 5-6). This only takes a few drops of the very dilute sodium carbonate per, say, 50 mls of deionized water.

[3] = TSC by inhalation: drug in the blood stream after nebulizing into the trachea; assay type: in vivo; settings: rats
Protocol: TSC has been given to rats via an inhalation route. Ten rats were given TSC directly into the lungs. This was done by inserting a tube into the trachea, and nebulizing 0.2 ml of TSC solution (TSC dissolved in dilute sodium carbonate solution) with about 3 to 6 mls of air. For all dosages studied (0.5-2 mg/kg), about 20% of the drug was present in the blood stream within one minute after it was given. For dosages of .8 -1.6 mg/kg the drug was present in the blood stream for a period of at least two hours.

[4] = Aqueous solubility and solution stability of TSC / BTCS
Source text: as §1

[5] = Dissolution in normal saline and other salt solutions; assay type: physicochemical; settings: no matter how much TSC is added (up to several milligrams per ml)
Protocol: Large volumes (as much as 3 times the estimated blood loss) of isotonic saline (also called normal saline) are infused as a treatment for hemorrhagic shock. The isotonic saline contains 9 g NaCl per liter of water so as not to disturb the ionic strength of the plasma once it is infused into the body. […] About 50% of the TSC dissolves in normal saline no matter how much TSC is added (up to several milligrams per ml), which means that undissolved particles of TSC are still present. […] The actual composition of the stock solution can be verified using UV-visible spectroscopy. This stock solution can be added to normal saline and the TSC remains dissolved.
This method can be used to dissolve a BTCS in other types of sodium chloride solutions, as well as in solutions of other salts such as KCl, Na2SO4, lactate, etc. Several, eg 1-3 mg/ml, can be put into solution in this manner.

[6] = Diffusivity of oxygen through aqueous solutions
Source text: TSC increases survival in mammals following hypoxia, increases oxygen consumption following hypoxia or physiological stress, increases blood pressure following hypoxia, decreases blood acidosis (i.e., decreases blood base deficit, increases blood pH, and decreases plasma lactate level) following hypoxia, decreases organ damage (e.g. liver, kidney) following hypoxia. Thus, the compounds of the disclosure are useful for treating mammal (including human) diseases/conditions which are characterized by low oxygen (hypoxia) such as respiratory diseases, hemorrhagic shock and cardiovascular diseases, multiple organ failure (due to, for example, ARDS sepsis or hemorrhagic shock), chronic renal failure, atherosclerosis, emphysema, asthma, hypertension, cerebral edema, papillomas, spinal cord injuries, stroke, among others. The compounds of the disclosure are also useful for treating mammals at risk for the above-noted diseases/conditions. Other bipolar trans carotenoid salts have similar properties.

[7] = test system: hemorrhaged rats (55% blood volume); settings: cited from earlier work

Compound | solubility in water [1] | survival and hemodynamic stability [2] | solubility (physchem) | solubility (physchem; pH 8) | drug present in the blood stream ([3]; inhalation (intratracheal nebulizing), all dosages 0.5-2 mg/kg, within one minute) | period the drug was present in the blood stream ([3]; inhalation, dosages of .8 -1.6 mg/kg) | amount completely dissolved in sodium carbonate-deionized water solution ([4]; deionized water brought to pH 8.0 with dilute sodium carbonate) | stability of solutions in water ([4]; tap, distilled, deionized water) | amount of TSC that dissolves in normal saline [5] | increase of diffusivity of oxygen through aqueous solutions [6] | survival ([7]; hemorrhaged rats (55% blood volume), bolus after hemorrhage, saline after another 30 minutes, all controls died) | Whole-body oxygen consumption ([7]; hemorrhaged rats, after about 15 minutes)
CC(/C=C/C=C(\C)C(=O)O)=C\C=C\C=C(C)\C=C\C=C(/C)C(=O)O [crocetin] | only sparingly soluble |  |  |  |  |  |  |  |  |  |  | 
CC(/C=C/C=C(\C)C(=O)O)=C\C=C\C=C(C)\C=C\C=C(/C)C(=O)O [TSC, Trans sodium crocetinate] |  | all survived with good hemodynamic stability for over two hours | ~10000 µg/mL | > 10000 µg/mL | about 20% | at least two | around 10 mg/ml | only stable if the pH is adjusted so as to make the solution basic | About 50% | about 30% | All of the TSC-treated animals lived | 75 % of normal resting value
CC(/C=C/C=C(\C)C(=O)O[C@@H]1O[C@H](CO[C@@H]2O[C@H](CO)[C@@H](O)[C@H](O)[C@H]2O)[C@@H](O)[C@H](O)[C@H]1O)=C\C=C\C=C(C)\C=C\C=C(/C)C(=O)O[C@@H]1O[C@H](CO[C@@H]2O[C@H](CO)[C@@H](O)[C@H](O)[C@H]2O)[C@@H](O)[C@H](O)[C@H]1O [crocin] | significant solubility |  |  |  |  |  |  |  |  |  |  | 
